Measurements from patent publication US10407410B2, “Pyridin-3-yl acetic acid derivatives as inhibitors of human immunodeficiency virus replication” (priority 2016, dated 2019).

System: NL-RLuc virus (HIV)
Experiment: Inhibition of HIV replication (NL-RLuc luciferase reporter virus in MT-2 cells)
Format: cell-based
Settings: Human immunodeficiency virus 1, MT2, 120 h
From the text: Inhibition of HIV Replication
A recombinant NL-RLuc proviral clone was constructed in which a section of the nef gene from NL4-3 was replaced with the Renilla Luciferase gene. This virus is fully infectious and can undergo multiple cycles of replication in cell culture. In addition, the luciferous reporter provides a simple and easy method for quantitating the extent of virus growth and consequently, the antiviral activity of test compounds. The plasmid pNLRLuc contains the proviral NL-Rluc DNA cloned into pUC18 at the PvuII site. The NL-RLuc virus was prepared by transfection of 293T cells with the plasmid pNLRLuc. Transfections were performed using the LipofectAMINE PLUS kit from Invitrogen (Carlsbad, Calif.) according to the manufacturer and the virus generated was titered in MT-2 cells. For susceptibility analyses, the titrated virus was used to infect MT-2 cells in the presence of compound, and after 5 days of incubation, cells were processed and quantitated for virus growth by the amount of expressed luciferase. Assay media was RPMI 1640 supplemented with 10% heat inactivated fetal bovine serum (FBS), 100 units/ml penicillin G/100 units/ml streptomycin, 10 mM HEPES buffer pH 7.55 and 2 mM L-glutamine. The results from at least 2 experiments were used to calculate the EC50 values. Luciferase was quantitated using the Dual Luciferase kit from Promega (Madison, Wis.). Susceptibility of viruses to compounds was determined by incubation in the presence of serial dilutions of the compound. The 50% effective concentration (EC50) was calculated by using the exponential form of the median effect equation where (Fa)=1/[1+(ED50/drug conc.)^m] (Johnson V A, Byington R T. Infectivity Assay. In Techniques in HIV Research. ed. Aldovini A, Walker B D. 71-76. New York: Stockton Press. 1990).

Cc1nc(C)c([C@H](OC(C)(C)C)C(=O)O)c(N2CCC(C)(C)CC2)c1-c1ccc2cc[nH]c2c1 [Example 4, (S)-2-(tert-butoxy)-2-(4-(4,4-dimethylpiperidin-1-yl)-5-(1H-indol-6-yl)-2,6-dimethylpyridin-3-yl)acetic acid]
EC50: 233 nM

Cc1nc(C)c([C@H](OC(C)(C)C)C(=O)O)c(N2CCC(C)(C)CC2)c1-c1ccc2c(c1)C(=O)C(Cc1ccc(F)cc1)(Cc1ccc(F)cc1)C(=O)N2 [Example 19, (S)-2-(5-(3,3-bis(4-fluorobenzyl)-2,4-dioxo-1,2,3,4-tetrahydroquinolin-6-yl)-4-(4,4-dimethylpiperidin-1-yl)-2,6-dimethylpyridin-3-yl)-2-(tert-butoxy)acetic acid]
EC50: 240 nM
